Values quoted from earlier work, collected in patent publication US20090263467A1, “COMBINATION DRUG THERAPY USING ORALLY DISSOLVING FILM OR ORALLY DISINTEGRATING TABLET DOSAGE FORMS TO TREAT DRY MOUTH AILMENTS” (priority 2008, published 2009).

Key:
[1] = neutral pH

CC[C@@H]1C(=O)OC[C@@H]1Cc1cncn1C [Pilocarpine]
half-life: 45.6 min
permeability [1]: higher
